From US20250222116A1, “PARP-1 DEGRADATION AGENT AND USE THEREOF” (XIZANG HAISCO PHARMACEUTICAL CO., LTD., priority 2021, published 2025)

Assays:
[1] = Pharmacokinetic test in mice; type: in vivo, ICR mice
Procedure: 8.1 Experimental animals: male ICR mice, 20 to 25 g, 18 mice/compound, purchased from Chengdu Ddossy Experimental Animals Co., Ltd.
8.2 Experimental design: on the day of the experiment, 36 ICR mice were randomly grouped according to their body weights. The animals were fasted with water available for 12 to 14 h one day before the administration, and were fed 4 h after the administration.
(§1) Before and after the administration, 0.06 mL of blood was taken from the orbit of the animals under isoflurane anesthesia and placed in an EDTAK2 centrifuge tube. The blood was centrifuged at 5000 rpm and 4° C. for 10 min to collect plasma. The blood collection time points for the intravenous group and intragastric administration group were: 0 min, 5 min, 15 min, 30 min, 1 h, 2 h, 4 h, 6 h, 8 h, and 24 h. Before analysis and detection, all samples were stored at −80° C. The samples were analyzed quantitatively by LC-MS/MS.

[2] = tested on: Human breast cancer MDA-MB-436 cells; assay: Mouse MDA-MB-436 subcutaneous in vivo transplanted tumor model; settings: for TGI: after 28 days of administration
Procedure: Human breast cancer MDA-MB-436 cells were placed in Leibovitz's L-15 medium (supplemented with 10 μg/mL insulin, 16 μg/mL glutathione, 10% fetal bovine serum and 1% penicillin-streptomycin solution) and cultured at 37° C. Conventional digestion treatment with trypsin was performed twice a week for passage. When the cell saturation was 80%-90%, and the number reached the requirement, the cells were harvested, counted, and inoculated. BALB/c nude mice (from Beijing Vital River Laboratory Animal Technology Co., Ltd.) were subcutaneously inoculated with 0.2 mL (10×10^6) of MDA-MB-436 cells (plus matrigel, with the volume ratio of 1:1) on the right back. When the average tumor volume reached about 180 mm^3, grouping and administration were performed (marked as Day 0). The solvent group was given 5% DMSO, 30% PEG400 and 65% of 20% sulfobutyl-β-cyclodextrin solution, and the administration group was given 1 or 10 mg/kg compound 10. The administration frequency was once a day, the administration cycle was 29 days, and the drug withdrawal observation period was set to 14 days. After grouping, the tumor diameter was measured twice a week with a vernier caliper. The formula for calculating the tumor volume was: V=0.5×a×b^2, where a and b represented the long and short diameters of the tumor, respectively. […] The tumor growth curve and the animal body weight change curve were as shown in FIG. 1 and FIG. 2, respectively.

PARP1 = PARP1 (Homo sapiens (Human), UniProt P09874); assay: PARP1 enzyme activity inhibition (chemiluminescence kit); type: biochemical
Procedure: PARP1, PARP2 and PARP7 chemical […] detection kits were all purchased from BPS Bioscience. The histone solution in the kit was diluted 5× with 1×PBS, and 25 μL of the diluted histone solution was added to a microwell plate and incubated overnight at 4° C. After the incubation was completed, the plate was washed three times with PBST (0.05% Tween-20). 25 μL of a blocking solution was added to the microwell plate and incubated at 25° C. for 90 minutes. After the incubation was completed, the plate was washed three times with PBST. 2.5 μL of compounds at different concentrations diluted in test buffer and 5 μL of 2.5× substrate mixed solution were added to the microwell plate. PARP1, PARP2 and PARP7 enzymes were diluted to 0.33, 0.23 and 5.00 ng/μL, respectively, 5 μL of the diluent was added to the microwell plate, and the reaction system was incubated at 25° C. for 60 minutes. After the incubation was completed, the plate was washed three times with PBST. […] ELISA ECL substrate A and substrate B were mixed at a ratio of 1:1 (v/v), 25 μL of the mixture was added to the microwell plate, and the chemiluminescence value was read using a BMG microplate reader.
Curve fitting was performed by four parameters (log(inhibitor) vs. response−Variable slope) using GraphPad Prism software, and the IC50 value was calculated.

[3] = Pharmacokinetic test in rats; type: in vivo, SD rats
Procedure: 7.1 Experimental animals: male SD rats, about 220 g, 6-8 weeks old, 6 rats/compound, purchased from Chengdu Ddossy Experimental Animals Co., Ltd.
7.2 Experimental design: on the day of the experiment, 12 SD rats were randomly grouped according to their body weights. The animals were fasted with water available for 12 to 14 h one day before the administration, and were fed 4 h after the administration.
as §1, with “administration, 0.15” for “administration, 0.06”, “intravenous administration” for “intravenous”, “were: 0,” for “were: 0 min,”

[4] = male, ICR, mouse, iv, i.v. 2.5 mg/kg, plasma
[5] = male, SD, rat, iv, i.v. 2.5 mg/kg, plasma

Sequence of PARP1 (P09874 whole entry): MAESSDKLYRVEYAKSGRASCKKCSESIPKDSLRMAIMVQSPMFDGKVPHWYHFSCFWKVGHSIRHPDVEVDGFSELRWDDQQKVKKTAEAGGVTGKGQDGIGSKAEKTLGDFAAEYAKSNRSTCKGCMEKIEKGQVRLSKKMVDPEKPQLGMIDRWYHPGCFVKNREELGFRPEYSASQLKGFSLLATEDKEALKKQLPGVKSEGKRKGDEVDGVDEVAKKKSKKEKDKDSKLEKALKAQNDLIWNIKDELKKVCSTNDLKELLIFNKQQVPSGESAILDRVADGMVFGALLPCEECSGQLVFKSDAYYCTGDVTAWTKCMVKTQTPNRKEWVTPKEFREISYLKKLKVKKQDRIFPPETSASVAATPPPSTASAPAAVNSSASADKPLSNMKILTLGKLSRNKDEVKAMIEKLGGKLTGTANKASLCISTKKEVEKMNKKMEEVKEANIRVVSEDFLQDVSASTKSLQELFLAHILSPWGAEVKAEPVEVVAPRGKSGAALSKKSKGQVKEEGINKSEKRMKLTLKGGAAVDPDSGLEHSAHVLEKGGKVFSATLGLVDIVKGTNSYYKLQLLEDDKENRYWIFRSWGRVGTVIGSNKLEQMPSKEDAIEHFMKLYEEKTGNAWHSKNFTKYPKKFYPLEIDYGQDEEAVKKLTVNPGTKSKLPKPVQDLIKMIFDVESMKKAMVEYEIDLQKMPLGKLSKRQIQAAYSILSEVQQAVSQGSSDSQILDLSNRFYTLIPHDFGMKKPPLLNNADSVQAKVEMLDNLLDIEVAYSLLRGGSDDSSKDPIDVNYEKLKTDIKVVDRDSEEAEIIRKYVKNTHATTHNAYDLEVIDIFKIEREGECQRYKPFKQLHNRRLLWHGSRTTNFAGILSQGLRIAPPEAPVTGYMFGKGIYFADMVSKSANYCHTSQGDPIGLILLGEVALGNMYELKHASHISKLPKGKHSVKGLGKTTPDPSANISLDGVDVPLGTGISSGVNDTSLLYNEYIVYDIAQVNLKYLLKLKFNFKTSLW

## CCc1cc2ncc(CN3CCN(c4ccc(C(=O)NC5CCN(c6ccc7c(c6)C(=O)N(C6CCC(=O)NC6=O)C7=O)CC5)nc4)CC3)cc2[nH]c1=O (stereo not drawn) [Compound 10, N-(1-(2-(2,6-dioxopiperidin-3-yl)-1,3-dioxoisoindolin-5-yl)piperidin-4-yl)-5-(4-((7-ethyl-6-oxo-5,6-dihydro-1,5-naphthyridin-3-yl)methyl)piperazin-1-yl)picolinamide]
[1]
  pharmacokinetic characteristics: good pharmacokinetic characteristics
[1]; i.g. 10 mg/kg
  F: 84.6%
[1]; [4]
  AUC(0-t): 20600 ng·h/mL
  clearance: 2.02 mL/min/kg
[1]; male, ICR, mouse, iv, i.v. 2.5 mg/kg, plasma, read-out: Vdss
  Vd: 0.358 L/kg
[1]; male, ICR, mouse, po, i.g. 10 mg/kg, plasma
  AUC(0-t): 69800 ng·h/mL
[2]; 1 mg/kg group, 14 days withdrawal observation
  tumor growth after drug withdrawal: continued to grow
[2]; 1 mg/kg once a day
  TGI: 47.14%
[2]; 10 mg/kg group, 14 days withdrawal observation
  tumor volume after drug withdrawal: consistently smaller than the tumor volume at the time of grouping
[2]; 10 mg/kg once a day
  TGI: 111%
[2]; 1 or 10 mg/kg once a day
  body weight of the animals: no significant decrease in the body weight
[2]; mouse MDA-MB-436 model
  efficacy in inhibiting tumor growth: good efficacy in inhibiting tumor growth and inducing tumor regression
  tolerability: well tolerated
PARP1; PARP1 enzyme
  IC50: 0.32 nM
PARP1; enzyme activities in vitro
  PARP1 inhibitory selectivity over PARP2 and PARP7: good PARP1 inhibitory selectivity
[3]
  pharmacokinetic characteristics: good pharmacokinetic characteristics
[3]; i.g. 10 mg/kg
  F: 34.3%
[3]; [5]
  AUC(0-t): 31200 ng·h/mL
  clearance: 1.42 mL/min/kg
[3]; male, SD, rat, iv, i.v. 2.5 mg/kg, plasma, read-out: Vdss
  Vd: 0.405 L/kg
[3]; male, SD, rat, po, i.g. 10 mg/kg, plasma
  AUC(0-t): 42900 ng·h/mL
